Results reported in patent EP0970046B1, “N-HYDROXY-2-(ALKYL, ARYL, OR HETEROARYL SULFANYL, SULFINYL OR SULFONYL)-3-SUBSTITUTED ALKYL, ARYL OR HETEROARYLAMIDES AS MATRIX METALLOPROTEINASE INHIBITORS” (Wyeth Holdings Corporation, priority 1997, dated 1998).
Read-outs that look alike come from different tables or passages of the source.

Columns and labels:
TACE = biological target: T1, TACE (Homo sapiens, UniProt P78536); experiment: Procedure for Measuring TACE Inhibition; format: biochemical; settings: for inhibition at 1 µM: read-out: TACE % inhibition at 1 µM
T1 construct: purchased Immunex
Experimental: Using 96-well black microtiter plates, each well receives a solution composed of 10 µL TACE (Immunex, final concentration 1µg/mL), 70µL Tris buffer, pH 7.4 containing 10% glycerol (final concentration 10 mM), and 10 µL of test compound solution in DMSO (final concentration 1µM, DMSO concentration <1%) and incubated for 10 minutes at room temperature. The reaction is initiated by addition of a fluorescent peptidyl substrate (final concentration 100 µM) to each well and then shaking on a shaker for 5 sec. The reaction is read (excitation 340 nm, emission 420 nm) for 10 min. and the increase in fluorescence over time is plotted as a linear line. The slope of the line is calculated and represents the reaction rate. The linearity of the reaction rate is confirmed (r^2 >0.85). The mean (x±sem) of the control rate is calculated and compared for statistical significance (p<0.05) with drug-treated rates using Dunnett's multiple comparison test.

MMP 13 = MMP 13 (Homo sapiens, UniProt P45452); experiment: MMP 13 inhibition (HTS; method not described); format: biochemical; settings: for inhibition at 0.2 µM: read-out: MMP 13 % inhibition at 0.2 µM (HTS); for inhibition at 0.036 µM: read-out: MMP 13 % inhibition at 36 nM (HTS)

T1 sequence (P78536 215-824): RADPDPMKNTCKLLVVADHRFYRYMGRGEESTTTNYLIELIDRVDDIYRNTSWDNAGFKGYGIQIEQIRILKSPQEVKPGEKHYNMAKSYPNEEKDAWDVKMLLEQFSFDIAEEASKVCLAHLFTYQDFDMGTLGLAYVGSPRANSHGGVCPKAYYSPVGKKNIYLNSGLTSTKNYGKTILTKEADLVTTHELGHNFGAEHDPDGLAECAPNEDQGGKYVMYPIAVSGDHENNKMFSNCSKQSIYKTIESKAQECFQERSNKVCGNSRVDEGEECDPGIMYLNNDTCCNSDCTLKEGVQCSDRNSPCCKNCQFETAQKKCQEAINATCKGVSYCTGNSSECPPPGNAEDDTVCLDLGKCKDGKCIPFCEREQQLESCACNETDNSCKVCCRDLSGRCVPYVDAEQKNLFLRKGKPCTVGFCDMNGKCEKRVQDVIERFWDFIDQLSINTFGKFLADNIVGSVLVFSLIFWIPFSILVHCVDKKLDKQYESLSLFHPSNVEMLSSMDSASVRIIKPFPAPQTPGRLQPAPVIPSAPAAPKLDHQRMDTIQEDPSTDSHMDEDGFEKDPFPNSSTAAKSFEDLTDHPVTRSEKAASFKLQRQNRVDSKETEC

inhibition at 1 µM (TACE; Examples 110-168) [%]	inhibition at 0.2 µM (MMP 13; HTS) [%]	inhibition at 0.036 µM (MMP 13; 36 nM, HTS) [%]	Compound	further results
		23	CCCCCCC(Sc1ccc(N2CCNCC2)cc1)C(=O)NO (stereo not shown) [Example 231, 2-(4-Piperazin-1-yl-phenylsulfanyl)-octanoic acid hydroxyamide]	inhibition at 1 µM (TACE; Examples 169-240): 41.6%
		12	CCCCCCC(C(=O)NO)[S+]([O-])c1nc(-c2ccccc2)cs1 (stereo not shown) [Example 179, 2-(4-Phenyl-thiazole-2-sulfinyl)-octanoic acid hydroxyamide]	inhibition at 1 µM (TACE; Examples 169-240): 42.7%
			O=C(CCC(Sc1ccccc1C(F)(F)F)C(=O)NO)NO (stereo not shown) [Example 137, 4-Hydroxycarbamoyl-4-(2-trifluoromethyl-benzenesulfanyl)-butyric acid hydroxyamide]	TACE % inhibition at 1 µM (TACE; Examples 110-168): 13.35%; MMP 13 % inhibition at 0.2 µM (HTS) (MMP 13; HTS): 83%
12.7	0		CCCCCCC(C(=O)NO)S(=O)(=O)c1cc(Cl)ccc1Cl (stereo not shown) [Example 161, 2-(2,5-Dichlorobenzenesulfonyl)-octanoic acid hydroxyamide]	
		16	CCCCCCC(SCCc1cnccn1)C(=O)NO (stereo not shown) [Example 175, 2-(2-Pyrazin-2-yl-ethylsulfanyl)-octanoic acid hydroxyamide]	inhibition at 1 µM (TACE; Examples 169-240): 32.9%; inhibition (MMP 13; read-out: MMP 13 % inhibition (HTS), HTS): 37%
16.7	24		CC(C)C(C(=O)NO)S(=O)(=O)CCc1ccccc1 (stereo not shown) [Example 118, N-Hydroxy-3-methyl-2-phenethylsulfonyl-butyramide]	
0	0		CC(C)C(C(=O)NO)[S+]([O-])c1ccc2ccccc2c1 (stereo not shown) [Example 115, N-Hydroxy-3-methyl-2-(naphthalen-2-ylsulfinyl)-butyramide]	
8.96	27		CCCCCCC(C(=O)NO)S(=O)(=O)c1ccc(OC)c(OC)c1 (stereo not shown) [Example 167, 2-(3,4-Dimethoxybenzenesulfonyl)-octanoic acid hydroxyamide]	
4.41	13		O=C(NO)C(COCc1ccccc1)SCc1ccccc1Cl (stereo not shown) [Example 149, 3-Benzyloxy-N-hydroxy-2-(2-chloro-benzylsulfanyl)-propionamide]	
29.2	47		O=C(NO)C(Cc1ccccc1)S(=O)(=O)c1ccc(O)cc1 (stereo not shown) [Example 127, 2-(4-Hydroxybenzenesulfonyl)-N-hydroxy-3-phenyl-propionamide]	
			5-Chloro-1,3-dimethyl-1H-pyrazole-4-sulfonic acid 4-(1-hydroxycarbamoyl-heptylsulfinyl)-hydroxyamide [Example 235]	TACE % inhibition at 1 µM (TACE; Examples 169-240): 48.3%; MMP 13 % inhibition at 36 nM (HTS) (MMP 13; 36 nM, HTS): 59%
		29	CCCCCCC(Sc1ccc(N2CCCCC2)cc1)C(=O)NO (stereo not shown) [Example 230, 2-(4-Piperidin-1-yl-phenylsulfanyl)-octanoic acid hydroxyamide]	IC50 (TACE; Examples 169-240, read-out: TACE IC50): 700 nM; inhibition at 1 µM (TACE; Examples 169-240): 72.1%
27.9	28		CC(=O)Nc1ccc(S(=O)(=O)C(Cc2ccccc2)C(=O)NO)cc1 (stereo not shown) [Example 130, 2-(4-Acetylamino-benzenesulfonyl)-N-hydroxy-3-phenyl-propionamide]	
1.82	54		O=C(NO)C(COCc1ccccc1)[S+]([O-])Cc1ccccc1Cl (stereo not shown) [Example 150, 3-Benzyloxy-N-hydroxy-2-(2-chloro-benzylsulfinyl)-propionamide]	
			COc1ccc(SC(C)C(=O)NO)cc1 (stereo not shown) [Example 111, N-Hydroxy-2-(4-methoxy-benzenesulfanyl)-propionamide]	TACE % inhibition at 1 µM (TACE; Examples 110-168): 40.4%; MMP 13 % inhibition at 0.2 µM (HTS) (MMP 13; HTS): 10%
		-14	CCCCCCC(SCC1NC(=O)NC1=O)C(=O)NO (stereo not shown) [Example 187, 2-(2,5-Dioxo-imidazolidin-4-ylmethylsulfanyl)-octanoic acid hydroxyamide]	inhibition at 1 µM (TACE; Examples 169-240): 85.5%
4.16	9		CCCCCCC(C(=O)NO)[S+]([O-])c1ccc(OC)c(OC)c1 (stereo not shown) [Example 166, 2-(3,4-Dimethoxybenzenesulfinyl)-octanoic acid hydroxyamide]	
9.52	84		CCCCCCC(C(=O)NO)[S+]([O-])c1cccc(OC)c1 (stereo not shown) [Example 163, 2-(3-Methoxybenzenesulfinyl)-octanoic acid hydroxyamide]	
-2.09	23		N=C(N)NCCCC(C(=O)NO)[S+]([O-])c1cccc(F)c1 (stereo not shown) [Example 156, 2-(3-Fluorophenylsulfinyl)-5-guanidino-pentanoic acid hydroxyamide]	
	73		C[S+]([O-])c1ccc([S+]([O-])C(COCc2ccccc2)C(=O)NO)cc1 (stereo not shown) [Example 147, 3-Benzyloxy-N-hydroxy-2-(4-methanesulfinyl-benzenesulfinyl)-propionamide]	
		22	CCCCCCC(C(=O)NO)S(=O)(=O)c1ccc(OS(=O)(=O)c2ccccc2[N+](=O)[O-])cc1 (stereo not shown) [Example 238, 2-Nitro-benzenesulfonic acid 4-(1-hydroxycarbamoyl-heptylsulfonyl)-hydroxyamide]	
	21		CCCCCCC(Sc1nc2ccccc2[nH]1)C(=O)NO (stereo not shown) [Example 168, 2-(2-Benzimidazol-2-ylsulfanyl)-octanoic acid hydroxyamide]	
	14		CCCCCCC(Sc1cc(Cl)ccc1Cl)C(=O)NO (stereo not shown) [Example 160, 2-(2,5-dichlorobenzenesulfanyl)-octanoic acid hydroxyamide]	
		30	CCCCCCC(Sc1ccc(OS(=O)(=O)c2ccccc2)cc1)C(=O)NO (stereo not shown) [Example 232, Benzenesulfonic acid 4-(1-hydroxycarbamoyl-heptylsulfanyl)-phenyl ester]	
			CCC(C(=O)NO)S(=O)(=O)C(C)C(=O)NO (stereo not shown) [Example 124, (1-Hydroxycarbamoyl-propane-1-sulfonyl)-propionic acid hydroxyamide]	MMP 13 % inhibition at 0.2 µM (HTS) (MMP 13; HTS): 0%
	20		O=C(CCC(C(=O)NO)[S+]([O-])c1ccccc1C(F)(F)F)NO (stereo not shown) [Example 138, 4-Hydroxycarbamoyl-4-(2-trifluoromethyl-benzenesulfinyl)-butyric acid hydroxyamide]	
	13		CCCCCCC(Sc1cccc(OC)c1)C(=O)NO (stereo not shown) [Example 162, 2-(3-Methoxybenzenesulfanyl)-ocranoic acid hydroxyamide]	
		32	CCCCCCC(Sc1nc2ccccc2s1)C(=O)NO (stereo not shown) [Example 170, 2-(2-Benzothiazol-2-ylsulfanyl)-octanoic acid hydroxyamide]	
		28	CCCCCCC(Sc1nc2ccccc2o1)C(=O)NO (stereo not shown) [Example 169, 2-(2-Benzooxazol-2-ylsulfanyl)-octanoic acid hydroxyamide]	

Compound	inhibition at 1 µM (TACE; Examples 110-168) [%]	inhibition at 0.2 µM (MMP 13; HTS) [%]	inhibition at 0.036 µM (MMP 13; 36 nM, HTS) [%]	further results
O=C(NO)C(Cc1cnc[nH]1)[S+]([O-])c1ccc(Br)cc1 (stereo not shown) [Example 153, 2-(4-bromo-benzenesulfinyl)-N-hydroxy-3-(3H-imidazol-4-yl)-propionamide]	11.8	12		
CCCCCCC(C(=O)NO)[S+]([O-])c1ccccn1 (stereo not shown) [Example 178, 2-(2-Pyridine-2-sulfinyl)-octanoic acid hydroxyamide]			-10	inhibition at 3600 µM (MMP 13; read-out: MMP 13 % inhibition at 3.6 mM (HTS)): 39%
CCCCCCCCC(Sc1cccc(OC)c1)C(=O)NO (stereo not shown) [Example 140, 2-(3-methoxy-benzenesulfanyl)decanoic acid hydroxamide]		29		
